Laboratory results published in patent US20130274838A1, “OPTICAL CONTROL OF CARDIAC FUNCTION” (The Research Foundation of State University of New York, priority 2010, published 2013).

Assays:
[1] = system: cardiac syncytium of neonatal rat cardiomyocytes and HEK-ChR2 (gap junctional coupling); assay: Carbenoxolone uncoupling in cardiac syncytium, contractility under optical pacing; assay type: cell-based; settings: 200 μM carbenoxolone for 20 min without perfusion, contractility in response to optical pacing
Procedure: Carbenoxolone, CBX, (Sigma), a gap junctional uncoupler, was used at a concentration 200 μM in the dual-patch experiments with canine cardiomyocytes and HEK-ChR2 or in the cardiac syncytium of neonatal rat cardiomyocytes and HEK-ChR2. In the latter case, CBX was applied for 20 min (without perfusion) in the co-cultures of HEK-ChR2 cells and cardiomyocytes. Contractility movies were recorded in response to optical pacing before and during administration of carbenoxolone, and upon washout to assess the role of gap junctional coupling in the functionality of the tandem cell unit. Microscopic imaging for confirmation of gene expression or for documenting contractions by optical excitation was done with the Olympus FluoView™ FV1000 confocal system at room temperature. An EMCCD camera (ImagEM EMCCD camera from Hamamatsu, Bridgewater, N.J.) attached to the Olympus FluoView™ FV1000 microscope was used to record contractility movies at 20 fps with 60× oil lens (NA=1.42) using SlideBook 5 software (Intelligent Imaging Innovations, Denver, Colo.). In addition, contractility response was also documented by automatic optical tracking of cell length at 250 Hz using an IonOptix videosystem (IonOptix) attached to a Nikon TE2000 inverted microscope.

[2] = system: cell pairs of adult canine ventricular myocytes and HEK-ChR2 (gap junctional coupling); assay: Carbenoxolone uncoupling of tandem cell units, dual patch clamp with optical pacing; assay type: cell-based; settings: 200 μM carbenoxolone perfusion, light-triggered action potentials before, during and after washout (FIG. 5f)
Procedure: Dual patch clamp experiments were performed within 48 hours after plating. Briefly, experiments were carried out on heterologous (HEK-ChR2— canine myocyte) cell pairs within 48 hours after plating, as described previously. A dual whole-cell voltage-clamp method was used to control and record the membrane potential of both cells and to measure associated membrane and junctional currents. Each cell of a pair was voltage clamped at the same potential by two separate patch clamp amplifiers (Axopatch 200, Axon Instruments). To record junctional conductance, brief voltage steps (±10 mV, 400 ms) were applied to one cell of a pair, whereas the other cell was held at constant voltage and the junctional currents were recorded from the unstepped cell. Membrane and action potentials were recorded in current-clamp mode. For electrical recordings, glass coverslips with adherent cells were transferred to an experimental chamber mounted on the stage of an inverted microscope (Olympus-IX71) equipped with a fluorescence imaging system. […] When filled, the resistance of the pipettes measured 1-4MΩ. […] Contractility movies were recorded in response to optical pacing before and during administration of carbenoxolone, and upon washout to assess the role of gap junctional coupling in the functionality of the tandem cell unit.

SMILES: CC1(C)[C@@H](OC(=O)CCC(=O)O)CC[C@]2(C)[C@H]3C(=O)C=C4[C@@H]5C[C@@](C)(C(=O)O)CC[C@]5(C)CC[C@@]4(C)[C@]3(C)CC[C@@H]12 [cabenoxolone, carbenoxolone]
- effect of pharmacological uncoupling on light-sensitivity of the myocytes in the TCUs [1]: abolished the light-sensitivity of the myocytes in the TCUs
- effect of pharmacological uncoupling on light-sensitivity of the myocytes in the TCUs [2]: abolished the light-sensitivity of the myocytes in the TCUs
